According to patent US6528528B2 (Warner-Lambert Company, priority 1997, dated 2003):

What was measured:
[1] = target: T1, rabbit reticulocyte 15-LO (Oryctolagus cuniculus, UniProt P12530); experiment: Rabbit Reticulocyte 15-LO Assay (h15LO); format: biochemical; conditions: for IC50: 2U rabbit reticulocyte 15-LO, 174 μM linoleic acid, 15 minutes at 4° C.; for inhibition at 10 µM: 0.25 h, read-out: h15LO % @ 10 μM
T1 construct: Fifteen-lipoxygenase was obtained from phenylhydrazine-treated rabbits and purified per the method of Rapoport; from tissue; host or cells: reticulocytes of phenylhydrazine-treated rabbits
T1 sequence (P12530 1-663): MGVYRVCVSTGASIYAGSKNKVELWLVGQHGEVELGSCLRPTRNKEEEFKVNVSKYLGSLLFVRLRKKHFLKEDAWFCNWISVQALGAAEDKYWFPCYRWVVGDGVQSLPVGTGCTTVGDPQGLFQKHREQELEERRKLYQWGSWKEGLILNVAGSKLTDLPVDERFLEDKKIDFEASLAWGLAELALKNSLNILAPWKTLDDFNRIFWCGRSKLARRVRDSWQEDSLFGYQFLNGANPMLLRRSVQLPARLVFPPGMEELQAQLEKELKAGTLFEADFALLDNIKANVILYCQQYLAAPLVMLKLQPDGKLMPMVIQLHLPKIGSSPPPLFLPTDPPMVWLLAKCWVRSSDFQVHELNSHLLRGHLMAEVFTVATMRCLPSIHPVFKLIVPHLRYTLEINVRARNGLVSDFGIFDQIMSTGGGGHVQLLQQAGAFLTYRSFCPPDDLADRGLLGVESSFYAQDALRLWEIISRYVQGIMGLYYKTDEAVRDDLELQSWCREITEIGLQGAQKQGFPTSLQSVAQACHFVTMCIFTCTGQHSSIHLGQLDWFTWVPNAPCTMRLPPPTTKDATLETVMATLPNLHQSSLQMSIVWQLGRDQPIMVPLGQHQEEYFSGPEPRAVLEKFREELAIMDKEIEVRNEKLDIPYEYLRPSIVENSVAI
How it was run: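 Purified rabbit reticulocyte 15-LO (2U) incubated with inhibitor and 174 μM linoleic acid in PBS with 0.2% Na cholate for 15 minutes at 4° C. 13-HPODE quantified by peak area against 13-HODE standard curve; % inhibition relative to uninhibited reaction.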

[2] = tested on: monocytes; experiment: Monocyte Recruitment Assay (chemotaxis of monocytes); format: cell-based; conditions: Table 3; for EC50: Monocyte, read-out: Monocyte Recruitment Assay ED50
Description: Monocyte Recruitment Assay
The recruitment or chemotaxis of monocytes was assayed by methods well known to those skilled in the art. In particular, the method set forth in J. Clin. Invest., 1988;82:1853-1863, which is hereby incorporated by reference, was used.

[3] = tested on: Rabbits fed a 0.25% cholesterol, 3% peanut oil, 3% coconut oil diet; experiment: In vivo tests: aortic atherosclerotic lesions in rabbits fed a cholesterol diet; conditions: 10 mg/kg as diet admix, 12 weeks
Description: The entire descending thoracic aorta was assayed for its cholesteryl ester (CE), free cholesterol phospholipid content. The lipids were extracted in chloroform:methanol (2:1) by the procedure of Folch, et al. (Folch J., Lees M., Sloane-Stanley G. H. A simple method for the isolation and purification of total lipids from animal tissue, J. Biol. Chem., 1957;226:497-509) and 300-500 μL of an internal standard, i.e., 200 mg/ml solution of 4-hydroxy-cholesterol in ethyl acetate:acetone (2:1), was added to the extracts of the thoracic aortic samples. After extraction, the organic phase was dried under nitrogen and redissolved in isooctane/tetrahydro-furan (97:3). The lipid content and composition of the thoracic aorta were measured using an HPLC method.
For histologic evaluation of the aortic arch lesions and for quantification of aortic arch cross-sectional lesion area, a 1 cm segment of the ascending aorta distal to the aortic valves was fixed in 10% neutral buffered formalin for 24 hours. The vessels were dehydrated, cleared in xylene, and infiltrated with molten paraffin (<60° C.) using a Tissue Tek VIP autoprocessor (Miles Scientific, Elkhart, Ind.). The tissue segments were embedded in paraffin and sectioned at 5 μm with a Reichert-Jung microtome (Baxter, McGraw Park, Ill.). In order to obtain a thorough representation of the histologic appearance of the aortic arch lesions, 3 ribbons of 20 sections each were cut. Each ribbon of sections was spaced approximately 100 μm apart. Three pairs of sections, i.e., 1 pair from each ribbon, were affixed to cleaned 3-aminopropyltriethoxy-silane coated glass slides and stored until stained. The general histologic character was evaluated in Verhoeff's elastica stained sections.
The gross extent of atherosclerosis within the aortic arch was measured. In addition, sections of the aortic arch, a site of hypercholesterolemia-induced lesions, stained using the Verhoeff's elastica procedure were used for quantification of lesion cross-sectional. The internal elastic lamina (IEL) was identified as a blue-black ring and images of that region were collected using a digital camera. The area within the IEL was quantified using the Image Pro Plus image analysis software. The area of the lumen of the aortic arch was also quantified in a similar fashion. Lesion area was defined as the difference between the area circumscribed by the internal elastic lamina and the lumen area.
Aortic arch lesion extent was also measured. The area distal to the 1 cm segment taken for histologic evaluation to the first intercostal ostia was removed from the animal, opened longitudinally and images of the surface of the vessel was collected using a digital camera. The lesions were identified as raised, opaque areas and their area was determined using the Image Pro Plus image analysis software. The area of the entire aortic arch was also determined. The percentage of aortic arch covered by atherosclerotic lesions was calculated.

| Compound | IC50 ([1]; Table 2) [nM] | melting point [°C] | other results |
| --- | --- | --- | --- |
| COc1ccc(C(=O)Nc2ccc(Cl)c(Cl)c2)cc1N [Example 4, 3-Amino-4-methoxy-N-(3,4-dichlorophenyl)-benzamide] | – | 179 to 182 | Aortic Arch Cross-Sectional Lesion Area (% Δ from Control) [3]: −94 % Δ from Control; Aortic Arch Lesion Extent (% Δ from Control) [3]: +20 % Δ from Control; Aortic Cholesteryl Ester Content (% Δ from Control) [3]: −7 % Δ from Control; IC50 ([1]; Table 1): 10 nM |
| COc1ccc(C(=O)Nc2ccccc2)cc1NCc1cc(Cl)cc(Cl)c1 [Example 51, 3-(3,5-Dichloro-benzylamino)-4-methoxy-N-phenyl-benzamide] | – | – | inhibition at 10 µM ([1]; Table 2): 69%; EC50 [2]: 20000 nM |
| COc1ccc(C(=O)Nc2ccc(Cl)c(Cl)c2)cc1NS(C)(=O)=O [Example 119, 3-Methanesulfonylamino-4-methoxy-N-(3,4-dichlorophenyl)-benzamide] | 90 | 226 to 228 | Aortic Arch Cross-Sectional Lesion Area (% Δ from Control) [3]: −50 % Δ from Control; Aortic Arch Lesion Extent (% Δ from Control) [3]: +46 % Δ from Control; Aortic Cholesteryl Ester Content (% Δ from Control) [3]: +46 % Δ from Control |
| COc1ccc(C(=O)Nc2ccccc2)cc1NC(=S)NC(=O)c1ccccc1 [Example 67, 4-Methoxy-N-phenyl-3-(3-benzoyl-thioureido)-benzamide] | 10000 | – | EC50 [2]: 24100 nM |
| COc1ccc(C(=O)Nc2ccccc2)cc1NC(=S)Nc1ccc(C(=O)O)cc1 [Example 75, 4-[3-(2-Methoxy-5-phenylcarbamoyl-phenyl)-thioureido]-benzoic acid] | 104 | 201 to 202 | Aortic Arch Cross-Sectional Lesion Area (% Δ from Control) [3]: −90 % Δ from Control; Aortic Arch Lesion Extent (% Δ from Control) [3]: −49 % Δ from Control; Aortic Cholesteryl Ester Content (% Δ from Control) [3]: −28 % Δ from Control |
| COc1ccc(NC(=S)Nc2cc(C(=O)Nc3ccccc3)ccc2OC)cc1 [Example 83, 4-Methoxy-3-[3-(4-methoxy-phenyl)-thioureido]-N-phenyl-benzamide] | 81 | 168 to 169 | – |
| COc1ccc(NC(=O)c2ccccc2)cc1NC(=S)Nc1cc(Cl)cc(Cl)c1 [Example 87, N-{^3-[^3-(3,5-Dichlorophenyl)-thioureido]-4-methoxy-phenyl}-benzamide] | 102 | 194 to 195 | – |
| COc1ccc(C(=O)Nc2ccccc2)cc1NCCc1cccc(C(F)(F)F)c1 [Example 253, 4-Methoxy-N-phenyl-3-[2-(3-trifluoromethyl-phenyl)-ethylamino]-benzamide] | – | 142 to 144 | h15LO, value given as bare % ([1]; Table 2, concentration not given): 60.56% |
| COc1ccc(C(=O)Nc2ccccc2)cc1NCc1ccc(OC)c(OC)c1 [Example 52, 3-(3,4-Dimethoxy-benzylamino)-4-methoxy-N-phenyl-benzamide] | – | 187 to 188 | inhibition at 10 µM ([1]; Table 2): 62% |
| CSc1ccc(C(=O)Nc2ccccc2)cc1N [Example 20, 3-Amino-4-methylsulfanyl-N-phenyl-benzamide] | – | 143 to 145 | IC50 ([1]; Table 1): 203 nM |
| COc1ccc(C(=O)Nc2ccc(F)cc2)cc1N [Example 8, 3-Amino-4-methoxy-N-(4-fluorophenyl)-benzamide] | – | 164 to 167 | IC50 ([1]; Table 1): 157 nM |
| O=C(Nc1ccc(F)cc1)c1ccc(OC(F)(F)F)c(NC(=S)Nc2cccc(C(F)(F)F)c2)c1 [Example 164] | 1590 | 153 to 154 | – |

Further compounds by falling IC50 ([1]; Table 2), results first:

| IC50 ([1]; Table 2) [nM] | melting point [°C] | Compound | other results |
| --- | --- | --- | --- |
| 73 | 169 to 170 | CSc1ccc(C(=O)Nc2ccccc2)cc1Nc1cccc(C(F)(F)F)c1 [Example 43, 4-Methylsulfanyl-3-(3-trifluoromethyl-phenylamino)-N-phenyl-benzamide] | – |
| 49 | 194 to 196 | COc1ccc(C(=O)Nc2ccccc2)cc1NC(=S)Nc1ccc(C(F)(F)F)cc1 [Example 63, 4-Methoxy-N-phenyl-3-[3-(4-trifluoromethyl-phenyl)-thioureido]-benzamide] | – |
| 46 | 173 to 175 | O=C(Nc1ccccc1)c1ccc(F)c(NC(=S)Nc2cc(Cl)cc(Cl)c2)c1 [Example 96, 3-[3-(3,5-Dichlorophenyl)-thioureido]-4-fluoro-N-phenyl-benzamide] | – |
| 42 | 179 to 180 | COc1ccc(C(=O)Nc2ccccc2)cc1NC(=S)Nc1ccc(Cl)cc1 [Example 65, 3-[3-(4-Chlorophenyl)-thioureido]-4-methoxy-N-phenyl-benzamide] | EC50 [2]: 22700 nM |
| 39 | 194 to 195 | COc1ccc(C(=O)Nc2ccccc2)cc1Nc1ccccc1 [Example 28, 4-Methoxy-3-phenylainino-N-phenyl-benzamide] | Monocyte Recruitment Assay % @ 30 μM [2]: 25% @ 30 μM |
| 32 | – | COc1ccc(C(=O)Nc2ccccc2)cc1NC(=S)Nc1ccc(C)cc1 [Example 69, 4-Methoxy-N-phenyl-3-(-3-p-tolyl-thioureido)-benzamide] | Monocyte Recruitment Assay % @ 30 μM [2]: 13% @ 30 μM |
| 20 | 199 to 200 | COc1ccc(C(=O)Nc2ccc(F)cc2)cc1Nc1cc(C)cc(C)c1 [Example 46, 4-Methoxy-3-(3,5-dimethyl-phenylamino)-N-(4-fluorophenyl)-benzamide] | – |
| 18 | 160 to 162 | O=C(Nc1ccccc1)c1ccc(O)c(Nc2cc(Cl)cc(Cl)c2)c1 [Example 56, 4-Hydroxy-3-(3,5-dichloro-phenylamino)-N-phenyl-benzamide] | EC50 [2]: 2600 nM |
| 17 | 163 to 164 | COc1ccc(C(=O)Nc2ccc(F)cc2)cc1Nc1cccc(C(F)(F)F)c1 [Example 40, 3-(3-Trifluoromethyl-phenylamino)-4-methoxy-N-(4-fluorophenyl)-benzamide] | Aortic Arch Cross-Sectional Lesion Area (% Δ from Control) [3]: −6 % Δ from Control; Aortic Arch Lesion Extent (% Δ from Control) [3]: +35 % Δ from Control; Aortic Cholesteryl Ester Content (% Δ from Control) [3]: +5 % Δ from Control |
| 8 | 175 to 178 | COc1ccc(C(=O)Nc2ccc(F)cc2)cc1NC(=S)Nc1cc(Cl)cc(Cl)c1 [Example 91, 3-[3-(3,5-Dichlorophenyl)-thioureido]-N-(4-fluorophenyl)-4-methoxy-benzamide] | Aortic Arch Cross-Sectional Lesion Area (% Δ from Control) [3]: −11 % Δ from Control; Aortic Arch Lesion Extent (% Δ from Control) [3]: −12 % Δ from Control; Aortic Cholesteryl Ester Content (% Δ from Control) [3]: +50 % Δ from Control |
| 7 | – | COc1ccc(C(=O)Nc2ccccc2)cc1Nc1cc(Cl)cc(Cl)c1 [Example 35, 3-(3,5-Dichloro-phenylamino)-4-methoxy-N-phenyl-benzamide] | EC50 [2]: 26300 nM |
